Laboratory results taken from patent US20150322033A1, “ANTIBACTERIAL AGENT” (priority 2012, published 2015).
Values after ≈ are worked out from the molar mass of the structure shown. Where two headings read alike, the source gives them in different places.

What was measured:
S. aureus Mu50 = assay: microbe, parasite or virus in culture; format: cell-based, Staphylococcus aureus; conditions: for MIC (mg/L) Mu50: Example 1, Tables 1 to 10; for MIC: Staphylococcus aureus
Protocol: (§1) S. aureus Mu50 (refer to Hiramatsu, K., Hanaki H., et al., J. Antimicrob. Chemother., 1997, 40(1), 135-6) or S. aureus FDA209P (ATCC 6538P) was cultured overnight at 37° C. in 4 mL of TBS (Tryptical Soy Broth, produced by Becton Dickinson) with shaking. After completion of the culture, the cells were suspended in fresh TBS to prepare a cell suspension showing an absorbance of 0.3 at 578 nm. Then, the cell suspension was diluted 500 times with CAMHB mentioned above.
(§2) CAMHB containing each test compound at each of the aforementioned concentrations was added to each well of a 96-well plate in a volume of 50 μL/well, the aforementioned cell suspension diluted 500 time was added to the well in a volume of 50 μL/well, and stationary culture was carried out overnight at 37° C.
(§3) MIC values (mg/L) of the flavones and quinolones against the strains were measured in the same manner as that of the measurement of MIC of Example 1, except that CAMHB containing each of the aforementioned flavones and quinolones prepared in Example 2 was used instead of CAMHB containing each of the test compounds.
(§4) MIC values of the flavones and quinolone for the strains were measured in the same manners as those of Example 1, except that S. aureus Mu50 NR-1 was also used as Staphylococcus aureus in addition to S. aureus FDA209P and S. aureus Mu50, cell suspensions of the strains were prepared.
(§5) In the same manner as that of Example 1, MIC values of M-246, M-21, J-Q21, and J-Q12.1 for Staphylococcus aureus were measured. M-246 and M-21 were obtained as commercial products, and as J-Q21 and J-Q12.1, those synthesized in Examples 6 and 7 were used.

[1] = test system: S. aureus FDA209P (ATCC 6538P); assay: microbe, parasite or virus in culture; format: cell-based, Staphylococcus aureus; conditions: for MIC: Staphylococcus aureus, read-out: MIC (mg/L) FDA209P
Protocol: as §1, §2, §3, §4, §5

[2] = MU50, read-out: MIC (mg/L) Mu50, Example 1, Tables 1 to 10
[3] = MU50, read-out: MIC (mg/L) Mu50

Row | SMILES | MIC (mg/L) Mu50 (S. aureus Mu50) [mg/L] | MIC (mg/L) FDA209P ([1]; Example 1, Tables 1 to 10) [mg/L] | MIC (S. aureus Mu50; [2]) [mg/L] | MIC ([1]; Example 1, Tables 1 to 10) [mg/L] | further results
1 | O=c1c(O)c(-c2ccc(O)c(O)c2)oc2c(OC3OC(CO)C(O)C(O)C3O)c(O)cc(O)c12 (stereo not shown) [compound 61] | 128 (≈ 266 µM) | 128 (≈ 266 µM) | – | – | –
2 | O=C(O)C1OC(Oc2cc(O)c3c(=O)cc(-c4ccc(O)c(O)c4)oc3c2)C(O)C(O)C1O (stereo not shown) [compound 62] | >128 | >128 | – | – | –
3 | O=c1cc(-c2ccc(OC3OC(CO)C(O)C(O)C3O)cc2)oc2cc(O)cc(O)c12 (stereo not shown) [compound 63] | 128 (≈ 296 µM) | 128 (≈ 296 µM) | – | – | –
4 | O=c1cc(-c2ccc(O[C@@H]3O[C@H](CO)[C@@H](O)[C@H](O)[C@H]3O)c(O)c2)oc2cc(O)cc(O)c12 [compound 64] | – | – | > 128 | > 128 | –
5 | O=c1c(OC2OC(CO)C(O)C(O)C2O)c(-c2ccc(O)cc2)oc2cc(O)cc(O)c12 (stereo not shown) [compound 65] | >128 | >128 | – | – | –
6 | O=C(O)C1OC(Oc2ccc(-c3cc(=O)c4c(O)cc(O)cc4o3)cc2O)C(O)C(O)C1O (stereo not shown) [compound 67] | 128 (≈ 277 µM) | 128 (≈ 277 µM) | – | – | –
7 | O=c1cc(-c2ccc(O)cc2)oc2ccccc12 [compound 68, 2-(4-hydroxyphenyl)chromen-4-one] | – | – | 128 (≈ 537 µM) | 128 (≈ 537 µM) | –
8 | O=c1cc(-c2ccc(O)cc2)oc2cccc(O)c12 [compound 70] | – | – | 128 (≈ 503 µM) | 128 (≈ 503 µM) | –
9 | CCOC(=O)c1oc2cc(O)cc(O)c2c(=O)c1-c1ccc(OC)cc1 [compound 71] | – | – | 128 (≈ 359 µM) | 128 (≈ 359 µM) | –
10 | COc1ccc(-c2coc3cc(OC(C)=O)cc(OC(C)=O)c3c2=O)cc1 [compound 72] | – | – | > 128 | > 128 | –
11 | COc1ccc(-c2c(C)oc3cc(O)cc(O)c3c2=O)cc1OC [compound 73] | – | – | > 128 | 128 (≈ 390 µM) | –
12 | COc1ccc(-c2coc3cc(OC)cc(O)c3c2=O)cc1 [compound 74] | – | – | > 128 | > 128 | –
13 | CCOc1ccc(-c2coc3cc(OCC)cc(OCC)c3c2=O)cc1 [compound 75] | – | – | > 128 | > 128 | –
14 | COc1ccc(-c2coc3cc(OC)cc(OC)c3c2=O)cc1 [compound 76] | – | – | > 128 | > 128 | –
15 | CC(=O)Oc1cc(OC(C)=O)c2c(=O)c(-c3ccc4c(c3)OCCO4)c(C)oc2c1 [compound 77] | >128 | >128 | – | – | –
16 | COc1cc(O)c2c(=O)c(-c3ccc(OC4OC(CO)C(O)C(O)C4O)cc3)coc2c1 (stereo not shown) [compound 78] | >128 | >128 | – | – | –
17 | COc1ccc(-c2coc3cc(OC(=O)N(C)C)cc(O)c3c2=O)cc1OC [compound 79] | – | – | – | – | MIC (S. aureus Mu50; [3]): > 128 mg/L; MIC [1]: > 128 mg/L
18 | COc1ccc(-c2coc3cc(OC(=O)N(C)C)cc(OC)c3c2=O)cc1OC [compound 80] | – | – | – | – | MIC (S. aureus Mu50; [3]): > 128 mg/L; MIC [1]: > 128 mg/L
19 | O=c1c(-c2ccc(OC3OC(CO)C(O)C(O)C3O)cc2)coc2cc(O)cc(O)c12 (stereo not shown) [compound 81] | >128 | >128 | – | – | –
20 | CC(=O)Oc1ccc(-c2coc3cc(OC(C)=O)cc(OC(C)=O)c3c2=O)cc1 [compound 82] | – | – | > 128 | > 128 | –
21 | Cc1oc2cc(O)cc(O)c2c(=O)c1-c1ccc2c(c1)OCCCO2 [compound 83] | – | – | 128 (≈ 376 µM) | 128 (≈ 376 µM) | –
22 | COc1cc(OC)c2c(=O)c(-c3ccc(OC4OC(CO)C(O)C(O)C4O)cc3)coc2c1 (stereo not shown) [compound 85] | >128 | >128 | – | – | –
23 | Cc1cc2c(cc1-c1c(C)oc3cc(O)cc(O)c3c1=O)OCCO2 [compound 87] | 128 (≈ 376 µM) | 64 (≈ 188 µM) | – | – | –
24 | COc1cc(OC)c2c(=O)c(-c3cc4c(cc3C)OCCO4)c(C)oc2c1 [compound 88] | >128 | 128 (≈ 347 µM) | – | – | –
25 | CC(=O)Oc1cc(OC(C)=O)c2c(=O)c(-c3cc4c(cc3C)OCCO4)c(C)oc2c1 [compound 89] | 128 (≈ 302 µM) | 128 (≈ 302 µM) | – | – | –
26 | CCOC(=O)c1oc2cc(OC)cc(O)c2c(=O)c1-c1ccc(OC)cc1 [compound 91] | – | – | > 128 | > 128 | –
